In patent publication US20130165475A1, “DEUTERIUM-ENRICHED HETEROCYCLIC COMPOUNDS AS KINASE INHIBITORS” (ASCEPION PHARMACEUTICALS, INC., priority 2010, published 2013):
Where a name gives a salt, the structure may show the parent alone.

How the values were obtained:
PDGFRβ = molecular target: T1, PDGFRβ (Homo sapiens, UniProt P09619); experiment: PDGFRβ cell-based assay (ELISA, phosphor-/total PDGFRβ in transfected CHO cells); details: compound at 100 nM; CHO cells transfected with full length PDGFRβ; FBS stimulation; read-out: % PDGFRβ kinase activity remains
T1 construct: expressed in transfected cells; host or cells: CHO cells
Text: A standard cell-based assay for PDGFRβ kinase activity can be used to test or screen the compounds of this invention and to identify PDGFRβ antagonists. In this example, ELISA kits (R&D Systems, Inc., Minneapolis, Minn. 55413, USA) were used.
(§1) The activity of PDGFRβ in cells depended on its autophosphorylation level by various factors including growth factors. In order to induce the cell to produce PDGFRβ, full length of PDGFRβ sequence was cloned into PC-DNA3.1 vector, the plasmid was then transfected into CHO cells. After 48 hours, the expression of PDGFRβ in transfected CHO cells was confirmed by regular western blotting.
A compound to be tested was first dissolved in DMSO to a concentration of 10 mM and stored at −20° C. One day before the screening, CHO cells transfected with full length PDGFRβ plasmid were grown in DMEM medium without the presence of serum. On the day of screening procedure, the compounds with various concentration in DMSO (from 0.5 nM to 500 nM) were added into DMEM medium, two hours later, 20% of FBS (Fetal Bovine Serum) was added into the medium to stimulate the production of phosphor-PDGFRβ. Cell lysate from approximately 5×10^5 transfected CHO cells were reacted with anti-phosphor PDGFRβ or anti-total PDGFRβ antibody in 96 well plates, in the presence of detection antibody. The phosphor-PDGFRβ or total PDGFRβ were detected with Streptavidin-HRP (R&D Systems), followed by chemiluminescent detection. The level of PDGFRβ kinase activity was quantified as the ratio between the amount of phosphor- and that of total PDGFRβ proteins.

VEGFR2 = molecular target: T2, VEGFR2 (Homo sapiens, UniProt P35968); experiment: VEGFR2 cell-based assay (ELISA, phosphor-/total VEGFR2 in transfected CHO cells); details: compound at 100 nM; CHO cells transfected with full length VEGFR2; FBS stimulation; read-out: % VEGFR2 kinase activity remains
T2 construct: expressed in transfected cells; host or cells: CHO cells
Text: A standard cell-based assay for VEGFR2 kinase activity can be used to test or screen the compounds of this invention and to identify VEGFR2 antagonists. In this example, ELISA kits (R&D Systems, Inc., Minneapolis, Minn. 55413, USA) were used.
as §1, with “VEGFR2” for “PDGFRβ”, “VEGFR2,” for “PDGFRβ,”
A compound to be tested was first dissolved in DMSO to a concentration of 10 mM and stored at −20° C. One day before the test, CHO cells transfected with full length VEGFR2 plasmid were grown in Dulbecco's Modified Eagle Medium (DMEM) without the presence of serum. On the day of the test, the compounds with various concentrations in DMSO (from 0.5 nM to 500 nM) were added into DMEM. Two hours later, 20% of FBS (Fetal Bovine Serum) was added into the medium to stimulate the production of phosphor-VEGFR2. Cell lysate from approximately 5×10^5 transfected CHO cells were reacted with anti-phosphor VEGFR2 or anti-total VEGFR2 antibody in 96-well plates, in the presence of detection antibody. The phosphor-VEGFR2 or total VEGFR2 were detected with Streptavidin-HRP(R&D Systems), followed by chemiluminescent detection. The level of VEGFR2 kinase activity was quantified as the ratio between the amount of phosphor- and that of total VEGFR2 proteins.

Mouse liver microsome = experiment: Liver microsomal stability assay, mouse; type: in vitro ADME; design: key: A: the percentage of a compound remains is greater than that of its deuterium non-enriched counterpart; B: a result otherwise; details: 40 μM, 37° C., 30 min, 1 mg/ml microsome proteins; class relative to deuterium non-enriched counterpart
Experimental: A standard liver microsomal stability assay can be used to test or screen the compounds of this invention and to identify compounds with enhanced metabolic stability due to the enrichment of deuterium in the compounds. Liver microsome proteins prepared from different species such as mouse and rat were obtained from a commercial source (Research Institute for Liver Diseases, Shanghai, China). The assay was conducted in 1.5% potassium hydrogenphosphate (K2HPO4) in the presence of liver microsome proteins at 1 mg/ml and supplemented with an […] (3.3 mM NADPH, 3.3 mM glucose-6-phosphate, 6 units/ml G6PDase, and 3.3 mM magnesium chloride). Test compound was added into the assay mixture to a final concentration of 40 μM and incubated at 37° C. for 0 or 30 minutes. The reaction was stopped by the addition of 20 μM Bifonazole/CAN. Samples were then centrifuged at 14000 rpm for 10 minutes to precipitate proteins. Supernatant were then transferred to microcentrifuge tubes and subject to reverse phase HPLC analysis to determine the concentration of test compound.
The percentage of compounds that remained in the assay reactions after a thirty-minute incubation at 37° C. is calculated as the ratio between the amount of compound remained after a thirty-minute and that after a zero-minute incubation.

c-Met = molecular target: T3, c-Met (Homo sapiens, UniProt P08581); experiment: c-Met cell-based assay (ELISA, phosphor-/total c-Met in transfected CHO cells, HGF stimulated); details: compound at 100 nM; CHO cells transfected with full length c-Met; HGF 100 ng/mL
T3 construct: expressed in transfected cells; host or cells: CHO cells
Text: A standard cell-based assay for c-Met kinase activity can be used to test or screen the compounds of this invention and to identify c-Met antagonists. In this example, ELISA kits (R&D Systems, Inc., Minneapolis, Minn. 55413, USA) were used.
as §1, with “c-Met” for “PDGFRβ”, “it specific” for “various factors including”, “factor-Hepatocyte growth factor (HGF).” for “factors.”, “c-Met,” for “PDGFRβ,”
A compound to be tested was first dissolved in DMSO to a concentration of 10 mM and stored at −20° C. One day before the screening, CHO cells transfected with full length c-Met plasmid were grown in DMEM medium without the presence of serum. On the day of screening procedure, the compounds with various concentration in DMSO (from 0.5 nM to 500 nM) were added into DMEM medium, two hours later, Hepatocyte growth factor (HGF) was added into the medium at the concentration of 100 ng/mL to stimulate the production of phosphor-c-Met. Cell lysate from approximately 5×10^5 transfected CHO cells were reacted with anti-phosphor c-Met or anti-total c-Met antibody in 96 well plates, in the presence of detection antibody. The phosphor-c-Met or total c-Met were detected with Streptavidin-HRP (R&D Systems), followed by chemiluminescent detection. The level of c-Met kinase activity was quantified as the ratio between the amount of phosphor- and that of total c-Met proteins.

T1 sequence (P09619 33-1106): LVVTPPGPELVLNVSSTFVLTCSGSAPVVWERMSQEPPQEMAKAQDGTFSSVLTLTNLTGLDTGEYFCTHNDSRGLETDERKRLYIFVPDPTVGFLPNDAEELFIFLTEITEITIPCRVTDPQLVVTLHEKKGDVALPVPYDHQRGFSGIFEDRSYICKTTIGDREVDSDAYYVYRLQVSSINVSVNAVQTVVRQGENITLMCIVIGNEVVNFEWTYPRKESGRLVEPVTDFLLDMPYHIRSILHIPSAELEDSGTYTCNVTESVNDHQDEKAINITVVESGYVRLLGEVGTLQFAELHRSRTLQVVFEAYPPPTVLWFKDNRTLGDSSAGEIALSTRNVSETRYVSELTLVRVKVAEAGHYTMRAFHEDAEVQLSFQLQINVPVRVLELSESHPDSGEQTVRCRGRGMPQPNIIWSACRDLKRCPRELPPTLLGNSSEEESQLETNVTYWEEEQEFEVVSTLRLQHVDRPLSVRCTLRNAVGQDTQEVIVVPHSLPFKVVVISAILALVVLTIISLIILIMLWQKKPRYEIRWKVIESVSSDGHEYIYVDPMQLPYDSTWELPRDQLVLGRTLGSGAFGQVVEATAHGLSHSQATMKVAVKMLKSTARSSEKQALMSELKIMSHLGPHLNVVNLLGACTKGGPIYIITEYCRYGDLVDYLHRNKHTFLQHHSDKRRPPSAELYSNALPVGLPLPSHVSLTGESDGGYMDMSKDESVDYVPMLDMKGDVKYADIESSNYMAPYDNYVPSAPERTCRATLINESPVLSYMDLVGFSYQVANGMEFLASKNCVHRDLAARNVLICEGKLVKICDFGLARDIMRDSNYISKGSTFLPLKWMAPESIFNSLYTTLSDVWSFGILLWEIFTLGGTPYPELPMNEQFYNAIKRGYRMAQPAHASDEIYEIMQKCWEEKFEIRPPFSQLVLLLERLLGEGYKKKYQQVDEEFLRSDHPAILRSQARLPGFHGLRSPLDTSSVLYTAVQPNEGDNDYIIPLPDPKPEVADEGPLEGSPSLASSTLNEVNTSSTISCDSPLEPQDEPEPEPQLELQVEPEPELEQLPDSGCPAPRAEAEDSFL
T3 sequence (P08581 25-1390): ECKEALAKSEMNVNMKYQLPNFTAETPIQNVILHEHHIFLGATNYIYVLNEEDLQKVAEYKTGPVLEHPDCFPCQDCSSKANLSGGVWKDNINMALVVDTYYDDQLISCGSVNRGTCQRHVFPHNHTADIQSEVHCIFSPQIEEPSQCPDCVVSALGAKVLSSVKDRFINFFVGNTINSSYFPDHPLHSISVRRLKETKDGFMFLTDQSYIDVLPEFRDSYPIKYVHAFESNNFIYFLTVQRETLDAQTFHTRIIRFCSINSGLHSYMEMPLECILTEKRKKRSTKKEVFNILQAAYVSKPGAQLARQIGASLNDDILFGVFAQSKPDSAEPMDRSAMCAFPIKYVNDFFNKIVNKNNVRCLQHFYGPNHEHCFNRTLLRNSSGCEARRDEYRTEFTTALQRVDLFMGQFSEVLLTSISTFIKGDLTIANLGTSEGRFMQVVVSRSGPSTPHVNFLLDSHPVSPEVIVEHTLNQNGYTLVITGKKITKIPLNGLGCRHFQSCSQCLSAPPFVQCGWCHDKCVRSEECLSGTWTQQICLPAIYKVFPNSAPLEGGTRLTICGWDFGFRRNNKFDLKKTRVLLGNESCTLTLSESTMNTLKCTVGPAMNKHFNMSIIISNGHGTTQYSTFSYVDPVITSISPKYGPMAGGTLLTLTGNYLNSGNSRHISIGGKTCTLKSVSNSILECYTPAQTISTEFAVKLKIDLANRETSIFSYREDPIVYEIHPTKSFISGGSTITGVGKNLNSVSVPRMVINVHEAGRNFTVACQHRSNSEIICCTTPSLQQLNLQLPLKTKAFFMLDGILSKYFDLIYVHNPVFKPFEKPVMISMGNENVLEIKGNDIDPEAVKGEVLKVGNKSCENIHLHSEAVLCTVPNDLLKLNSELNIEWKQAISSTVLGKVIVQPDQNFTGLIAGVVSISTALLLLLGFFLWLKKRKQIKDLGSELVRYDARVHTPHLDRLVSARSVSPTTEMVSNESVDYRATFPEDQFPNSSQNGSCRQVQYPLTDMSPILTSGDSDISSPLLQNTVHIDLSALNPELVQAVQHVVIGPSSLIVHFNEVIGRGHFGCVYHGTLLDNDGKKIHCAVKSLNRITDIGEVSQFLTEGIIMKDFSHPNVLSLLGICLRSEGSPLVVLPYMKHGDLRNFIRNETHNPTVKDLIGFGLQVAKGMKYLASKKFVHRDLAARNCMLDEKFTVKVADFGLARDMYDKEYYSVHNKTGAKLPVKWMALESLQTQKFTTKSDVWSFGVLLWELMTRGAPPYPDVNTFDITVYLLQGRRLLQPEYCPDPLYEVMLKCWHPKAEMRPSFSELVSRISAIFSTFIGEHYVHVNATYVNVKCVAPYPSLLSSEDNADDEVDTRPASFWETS
T2 sequence (P35968 20-1356): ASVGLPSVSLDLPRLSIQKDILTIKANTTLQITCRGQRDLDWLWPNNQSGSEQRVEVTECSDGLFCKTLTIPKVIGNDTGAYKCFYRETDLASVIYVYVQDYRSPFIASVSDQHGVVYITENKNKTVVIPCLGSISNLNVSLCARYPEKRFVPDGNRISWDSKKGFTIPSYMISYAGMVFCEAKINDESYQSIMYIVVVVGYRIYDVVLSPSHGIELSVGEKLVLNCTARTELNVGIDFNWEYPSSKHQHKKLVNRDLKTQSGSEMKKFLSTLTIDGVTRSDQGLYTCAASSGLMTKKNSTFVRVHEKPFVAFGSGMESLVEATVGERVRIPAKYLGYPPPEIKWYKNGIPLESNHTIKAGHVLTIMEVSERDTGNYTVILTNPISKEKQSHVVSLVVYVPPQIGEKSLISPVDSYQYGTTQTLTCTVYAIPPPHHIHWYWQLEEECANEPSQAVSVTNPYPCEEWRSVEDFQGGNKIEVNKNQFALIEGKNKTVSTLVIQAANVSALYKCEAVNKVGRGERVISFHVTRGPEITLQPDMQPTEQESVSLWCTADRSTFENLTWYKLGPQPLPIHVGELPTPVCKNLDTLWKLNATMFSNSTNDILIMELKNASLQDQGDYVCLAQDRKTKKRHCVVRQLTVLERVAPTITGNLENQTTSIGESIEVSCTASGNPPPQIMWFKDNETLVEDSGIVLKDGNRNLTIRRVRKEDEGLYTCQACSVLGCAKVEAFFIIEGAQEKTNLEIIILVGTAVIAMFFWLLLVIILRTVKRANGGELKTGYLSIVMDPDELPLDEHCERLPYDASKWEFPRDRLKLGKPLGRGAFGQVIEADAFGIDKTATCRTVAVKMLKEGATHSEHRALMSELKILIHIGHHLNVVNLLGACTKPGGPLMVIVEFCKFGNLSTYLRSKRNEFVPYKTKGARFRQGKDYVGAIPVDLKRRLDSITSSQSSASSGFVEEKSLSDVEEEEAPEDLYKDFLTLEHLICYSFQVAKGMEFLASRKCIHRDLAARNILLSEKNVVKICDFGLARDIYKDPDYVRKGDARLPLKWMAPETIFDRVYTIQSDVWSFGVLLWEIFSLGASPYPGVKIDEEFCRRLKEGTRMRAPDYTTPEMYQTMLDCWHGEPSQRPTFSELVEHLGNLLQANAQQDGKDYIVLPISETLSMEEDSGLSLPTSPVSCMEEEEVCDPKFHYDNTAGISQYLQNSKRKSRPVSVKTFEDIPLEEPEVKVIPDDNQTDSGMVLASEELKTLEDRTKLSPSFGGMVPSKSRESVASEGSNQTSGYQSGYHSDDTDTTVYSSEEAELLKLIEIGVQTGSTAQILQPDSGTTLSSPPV

remaining activity at 0.1 µM (PDGFRβ) | remaining activity at 0.1 µM (VEGFR2) | % of compound remained at the 30th minutes, Mouse liver microsome (Mouse liver microsome) | Compound | % C-Met kinase activity remains (c-Met)
< 70% | < 70% | A | [2H]C([2H])(c1ccnc(N)c1)N1CCc2c(NC(=O)Nc3cc(Cl)ccc3OC)cccc21 [Example 1, 1-[1-[(2-Amino-4-pyridyl)-dideuteriomethyl]indolin-4-yl]-3-(5-chloro-2-methoxyphenyl)urea] | B (the percentage is greater or equal to 70%)
< 70% | < 70% | A | Cl.[2H]C([2H])(c1ccnc(N)c1)n1ccc2c(NC(=O)Nc3cc(Cl)ccc3OC)cccc21 [Example 2, 1-[1-[(2-amino-4-pyridyl)-dideuteriomethyl]indol-4-yl]-3-(5-chloro-2-methoxyphenyl)urea hydrochloride] | B (the percentage is greater or equal to 70%)
≥ 70% | < 70% | B | [2H]C([2H])([2H])Oc1ccc(Cl)cc1NC(=O)Nc1cccc2c1CCN2C([2H])([2H])c1ccnc(N)c1 [Example 3, 1-[1-[(2-Amino-4-pyridyl)-dideuteriomethyl]indolin-4-yl]-3-[5-chloro-2-(trideuteriomethoxy)phenyl]urea] | A (the percentage of kinase activity remains is below 70%)
≥ 70% | < 70% | B | [2H]C([2H])([2H])Oc1ccc(Cl)cc1NC(=O)Nc1cccc2c1ccn2C([2H])([2H])c1ccnc(N)c1 [Example 4, 1-[1-[(2-amino-4-pyridyl)-dideuteriomethyl]indol-4-yl]-3-[5-chloro-2-(trideuteriomethoxy)phenyl]urea] | A (the percentage of kinase activity remains is below 70%)
< 70% | < 70% | B | [2H]C([2H])([2H])Oc1ccc(Cl)cc1NC(=O)Nc1cccc2c1CCN2Cc1ccnc(N)c1 [Example 5, 1-[1-[(2-Amino-4-pyridyl)methyl]indolin-4-yl]-3-[5-chloro-2-(trideuteriomethoxy)phenyl]urea] | A (the percentage of kinase activity remains is below 70%)
< 70% | ≥ 70% | B | [2H]C([2H])([2H])Oc1ccc(Cl)cc1NC(=O)Nc1cccc2c1ccn2Cc1ccnc(N)c1 [Example 6, 1-[1-[(2-amino-4-pyridyl)methyl]indol-4-yl]-3-[5-chloro-2-(trideuteriomethoxy)phenyl]urea] | A (the percentage of kinase activity remains is below 70%)
< 70% | < 70% | A | Cl.[2H]C([2H])([2H])Oc1ccc(Cl)cc1NC(=O)Nc1cccc2c1CCN2C([2H])([2H])c1ccnc2[nH]ccc12 [Example 7, 1-[5-Chloro-2-(trideuteriomethoxy)phenyl]-3-[1-[dideuterio(1H-pyrrolo[2,3-b]pyridin-4-yl)methyl]indolin-4-yl]urea hydrochloride] | A (the percentage of kinase activity remains is below 70%)
< 70% | < 70% | A | Cl.[2H]C([2H])([2H])Oc1ccc(Cl)cc1NC(=O)Nc1cccc2c1ccn2C([2H])([2H])c1ccnc2[nH]ccc12 [Example 8, 1-[5-chloro-2-(trideuteriomethoxy)phenyl]-3-[1-[dideuterio(1H-pyrrolo[2,3-b]pyridin-4-yl)methyl]indol-4-yl]urea hydrochloride] | A (the percentage of kinase activity remains is below 70%)
< 70% | < 70% | A | [2H]C([2H])(c1ccnc2[nH]ccc12)N1CCc2c(NC(=O)Nc3cc(Cl)ccc3OC)cccc21 [Example 9, 1-(5-Chloro-2-methoxyphenyl)-3-[1-[dideuterio(1H-pyrrolo[2,3-b]pyridin-4-yl)methyl]indolin-4-yl]urea hydrochloride] | A (the percentage of kinase activity remains is below 70%)
≥ 70% | < 70% | A | [2H]C([2H])(c1ccnc2[nH]ccc12)n1ccc2c(NC(=O)Nc3cc(Cl)ccc3OC)cccc21 [Example 10, 1-(5-chloro-2-methoxyphenyl)-3-[1-[dideuterio(1H-pyrrolo[2,3-b]pyridin-4-yl)methyl]indol-4-yl]urea hydrochloride] | A (the percentage of kinase activity remains is below 70%)
< 70% | < 70% | B | [2H]C([2H])(c1ccnc2[nH]ccc12)N1CCc2c(NC(=O)Nc3cc(Cl)ccc3F)cccc21 [Example 11, 1-(5-Chloro-2-fluorophenyl)-3-[1-[dideuterio(1H-pyrrolo[2,3-b]pyridin-4-yl)methyl]indolin-4-yl]urea hydrochloride] | A (the percentage of kinase activity remains is below 70%)
